From US20050049278A1, “Benzo[1,3]dioxole compounds, pharmaceutical compositions thereof, and processes of making and using the same” (priority 2003, published 2005)
Like-named read-outs stand apart in the source and are kept apart here.

Legend:
[1] = tested on: PC3 (prostate adenocarcinoma); test: Cell viability (cell proliferation assay), PC3; format: cell-based; conditions: 48 to 72 hr exposure
Protocol: (§1) HEK293 cells were seeded into each well of a 96-well plate (5000 cells/well) and incubated overnight to allow the cells to attach. The culture media was removed and replaced with 100 μl of phenol red-free media containing the compounds 5a, 5a,b, and 9a at various concentrations. The cells were allowed to grow in the presence of the compounds for 48 hrs. At the end of the treatment, 20 μl of CellTiter 96 Aqueous One Solution reagent was added directly into each well, and the cells were incubated at 37° C. for 2 hrs. This reagent converts to a form that absorbs light at 490 nm by living cells. Thus, absorbance at 490 nm is proportional to the number of viable cells. The 490 nm absorbance was measured on a BioRad plate reader. Control wells containing no cells were included in this assay to correct for background absorbance.
(§2) The effect of compound 9a on the viability of cancer cell lines as well as dividing and non-dividing mouse Swiss3T3 cells was studied.
(§3) In particular, the cell proliferation assay, as described in Example 15, was used to test the effect of a 48 to 72 hr exposure of these cell lines to compound 9a at various concentrations.

[2] = tested on: HeLa (cervical adenocarcinoma); test: Cell viability (cell proliferation assay), HeLa; format: cell-based; conditions: Homo sapiens, 48 to 72 hr exposure
Protocol: as §1, §2, §3

[3] = tested on: Swiss 3T3 dividing fibroblast; test: Cell viability (cell proliferation assay), dividing Swiss 3T3; format: cell-based; conditions: Mus musculus, 48 to 72 hr exposure
Protocol: as §1, §2, §3

[4] = tested on: NCl/ADR (breast adenocarcinoma); test: Cell viability (cell proliferation assay), NCl/ADR; format: cell-based; conditions: 48 to 72 hr exposure
Protocol: as §1, §2, §3

[5] = tested on: HTS-tubulin (90% tubulin plus 10% microtubule associated proteins); test: Microtubule polymerization assay (turbidity at 340 nm); format: biochemical; conditions: absorbance at 340 nm, 30 minutes, 37° C., FIG. 3
Protocol: Microtubule polymerization assays were performed to determine if compounds, such as compound 9a, cause G2/M cell cycle arrest by affecting microtubule dynamics. A microtubule polymerization assay was performed that takes advantage of the observation that there is an increase in turbidity that can be measured at 340 nm as tubulin heterodimers polymerize to form microtubules. In brief, HTS-tubulin (90% tubulin plus 10% microtubule associated proteins; Cytoskeleton Inc., Denver, Colo.) was resuspended in G-PEM buffer (80 mM Pipes, pH 6.9; 2 mM MgCl2; 0.5 mM EDTA; 1 mM GTP) to 10 mg/ml. This suspension was clarified by centrifugation for 10 min. at 225,000×g. The supernatant was then diluted with G-PEM buffer to 2 mg/ml and 100 μl of this solution was added to the appropriate number of ½-area wells in a 96-well format (Corning). Each compound (10 μl of a 10× final concentration in 10% DMSO) was added to the wells in duplicate and immediately put into a pre-warmed (37° C.) Spectromax 190 plate reader. The absorbance was read at 340 nm immediately (time=0) and every minute thereafter for 30 minutes.
The tubulin mix was incubated in the presence of paclitaxel (a microtubule stabilizing agent), nocodazole (a microtubule destabilizing agent), vehicle control (DMSO), or varying concentrations of compound 9a (FIG. 3).

HEK293 cells [6] = test: Cell cycle analysis by FACS of HEK293 cells; format: cell-based; conditions: for Percent of Cells in G1 / Percent of Cells in G2/M / Percent of Cells in S: treated 16 to 24 hrs
Protocol: Fluorescence-activated cell sorting (FACS) analysis was used to examine the cell cycle state when the cells were incubated with compounds of formula (I) as well as several control compounds, including DMSO, noscapine (a known G2/M inhibitor), and colchicine (a known G2/M inhibitor).
In particular, HEK293 cells were cultured in DMEM media (Celigro) supplemented with 10% Fetal Bovine Serum (Tissue Culture Biologicals) and 1× Penicillin/Streptomycin/Glutamine (Gibco). The cells were grown at 37° C. with 5% CO2, plated in six-well plates at 2.5×10^6 cells/well, and treated for 16 to 24 hrs with the compounds at the concentrations shown in Table 1, below. The cells were then triturated off the bottom of the wells, washed 1× with PBS, then fixed with 70% ethanol, and stored at 4° C. before staining and FACS analysis.
The DNA content of cells was determined using a FacsVantage SE flow cytometry system (Becton Dickinson, San Jose, Calif.) and a Cellular DNA Flow Cytometric Analysis Kit (Roche Applied Science, Indianapolis, Ind.). Cell cycle analysis was performed using Cylchred 1.0.2 software.

HL-60 (leukemia) = test: Cell viability (cell proliferation assay), HL-60; format: cell-based; conditions: Homo sapiens, 48 to 72 hr exposure
Protocol: as §1, §2, §3

[7] = tested on: A549 (non-small cell lung carcinoma); test: Cell viability (cell proliferation assay), A549; format: cell-based; conditions: Homo sapiens, 48 to 72 hr exposure
Protocol: as §1, §2, §3

U937 (lymphoma) = test: Cell viability (cell proliferation assay), U937; format: cell-based; conditions: Homo sapiens, U-937, 48 to 72 hr exposure
Protocol: as §1, §2, §3

H4 (glioma) = test: Cell viability (cell proliferation assay), H4; format: cell-based; conditions: 48 to 72 hr exposure
Protocol: as §1, §2, §3

[8] = tested on: OVCAR-4 (ovarian adenocarcinoma); test: Cell viability (cell proliferation assay), OVCAR-4; format: cell-based; conditions: Homo sapiens, 48 to 72 hr exposure
Protocol: as §1, §2, §3

HEK293 cells [9] = test: HEK293 cell viability, CellTiter 96 Aqueous One Solution Cell Proliferation assay; format: cell-based; conditions: Homo sapiens, HEK293, 48 h, read-out: EC50
Protocol: as §1, with “The effect of various doses of compounds 5a, 5a,b, and 9a on the viability of HEK293 cells was examined using the CellTiter 96 Aqueous One Solution Cell Proliferation assay (Promega). The HEK293 cells were cultured in DMEM media (Cellgro) or phenol red-free DMEM (Gibco) supplemented with 10% Fetal Bovine Serum (Tissue Culture Biologicals) and 1× Penicillin/Streptomycin/Glutamine (Gibco). The cells were grown at 37° C. with 5% CO2. HEK293” for “HEK293”

[10] = tested on: HT29 (colorectal adenocarcinoma); test: Cell viability (cell proliferation assay), HT29; format: cell-based; conditions: Homo sapiens, HT-29, 48 to 72 hr exposure
Protocol: as §1, §2, §3

[11] = tested on: SW480 (colorectal adenocarcinoma); test: Cell viability (cell proliferation assay), SW480; format: cell-based; conditions: Homo sapiens, 48 to 72 hr exposure
Protocol: as §1, §2, §3

[12] = tested on: Swiss 3T3 non-dividing fibroblast; test: Cell viability (cell proliferation assay), non-dividing Swiss 3T3; format: cell-based, mouse
Protocol: as §1, §2, §3

[13] = tested on: HCT15 (colorectal adenocarcinoma); test: Cell viability (cell proliferation assay), HCT15; format: cell-based; conditions: Homo sapiens, HCT-15, 48 to 72 hr exposure
Protocol: as §1, §2, §3

[14] = tested on: HOP-18 (non-small cell lung carcinoma); test: Cell viability (cell proliferation assay), HOP-18; format: cell-based; conditions: Homo sapiens, 48 to 72 hr exposure
Protocol: as §1, §2, §3

topoisomerase II = biological target: T1, topoisomerase II (Homo sapiens, UniProt P11388); test: Topoisomerase II assay (supercoiled pBluescript DNA, agarose gel); format: biochemical; conditions: in vitro, FIG. 2
T1 construct: purchased Topogen Inc
Protocol: (§4) Analysis of topoisomerase activity was performed in 20 μl reactions with either topoisomerase I reaction buffer (10 mM TRIS-HCl, pH 7.5; 100 mM NaCl; 1 mM 2-mercaptoethanol) or topoisomerase II reaction buffer (50 mM Tris-HCl, pH 8; 120 mM KCl; 10 mM MgCl2; 0.5 mM dithiothreitol; 0.5 mM ATP; 30 μg BSA/ml) containing 125 ng supercoiled pBluescript DNA and either 2 U topoisomerase I (Sigma-Aldrich) or topoisomerase II (Topogen Inc.). After reaction at 37° C. for 20 minutes, the reactions were terminated through the addition of sodium dodecyl sulfate to 1% w/v and heating to 65° C. for 10 minutes. Proteinase K was then added to 10 μg/ml and digestion was allowed to proceed at 37° C. for 20 minutes before electrophoresis of the DNA in 0.8% agarose gels containing 0.5 μg/ml ethidium bromide for 18 hours at 75V in 0.5×TBE buffer. DNA was then visualized using a UV-transilluminator and the image was captured using a BioRad CCD camera and gel documentation system.

topoisomerase I = biological target: T2, topoisomerase I (Homo sapiens, UniProt P11387); test: Topoisomerase I assay (supercoiled pBluescript DNA, agarose gel); format: biochemical; conditions: in vitro, FIG. 2
T2 construct: purchased Sigma-Aldrich
T2 sequence (P11387 1-765): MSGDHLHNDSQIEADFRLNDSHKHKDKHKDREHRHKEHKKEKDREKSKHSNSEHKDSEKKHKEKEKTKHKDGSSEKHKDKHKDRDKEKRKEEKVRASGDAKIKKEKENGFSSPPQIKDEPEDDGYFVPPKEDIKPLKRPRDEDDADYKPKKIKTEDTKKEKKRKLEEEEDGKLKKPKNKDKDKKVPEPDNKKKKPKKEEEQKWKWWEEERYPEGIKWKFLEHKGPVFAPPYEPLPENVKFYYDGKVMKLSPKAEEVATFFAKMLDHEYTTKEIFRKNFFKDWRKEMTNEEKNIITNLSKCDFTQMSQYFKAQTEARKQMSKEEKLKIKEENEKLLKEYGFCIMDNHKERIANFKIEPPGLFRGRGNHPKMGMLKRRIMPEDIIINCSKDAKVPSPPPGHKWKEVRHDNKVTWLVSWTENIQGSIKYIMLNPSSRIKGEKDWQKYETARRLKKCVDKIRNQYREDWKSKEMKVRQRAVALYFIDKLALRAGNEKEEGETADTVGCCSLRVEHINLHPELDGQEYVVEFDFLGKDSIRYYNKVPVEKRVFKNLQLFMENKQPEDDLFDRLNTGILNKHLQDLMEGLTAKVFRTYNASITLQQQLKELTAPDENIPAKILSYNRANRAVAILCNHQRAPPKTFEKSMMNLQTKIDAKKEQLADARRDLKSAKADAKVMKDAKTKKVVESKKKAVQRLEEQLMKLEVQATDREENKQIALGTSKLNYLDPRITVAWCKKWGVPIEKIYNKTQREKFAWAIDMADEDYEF
Protocol: as §4, with “The ability of compounds that cause S-phase cell cycle arrest to inhibit topoisomerase I and topoisomerase II was examined. Analysis” for “Analysis”

T1 sequence (P11388 whole entry): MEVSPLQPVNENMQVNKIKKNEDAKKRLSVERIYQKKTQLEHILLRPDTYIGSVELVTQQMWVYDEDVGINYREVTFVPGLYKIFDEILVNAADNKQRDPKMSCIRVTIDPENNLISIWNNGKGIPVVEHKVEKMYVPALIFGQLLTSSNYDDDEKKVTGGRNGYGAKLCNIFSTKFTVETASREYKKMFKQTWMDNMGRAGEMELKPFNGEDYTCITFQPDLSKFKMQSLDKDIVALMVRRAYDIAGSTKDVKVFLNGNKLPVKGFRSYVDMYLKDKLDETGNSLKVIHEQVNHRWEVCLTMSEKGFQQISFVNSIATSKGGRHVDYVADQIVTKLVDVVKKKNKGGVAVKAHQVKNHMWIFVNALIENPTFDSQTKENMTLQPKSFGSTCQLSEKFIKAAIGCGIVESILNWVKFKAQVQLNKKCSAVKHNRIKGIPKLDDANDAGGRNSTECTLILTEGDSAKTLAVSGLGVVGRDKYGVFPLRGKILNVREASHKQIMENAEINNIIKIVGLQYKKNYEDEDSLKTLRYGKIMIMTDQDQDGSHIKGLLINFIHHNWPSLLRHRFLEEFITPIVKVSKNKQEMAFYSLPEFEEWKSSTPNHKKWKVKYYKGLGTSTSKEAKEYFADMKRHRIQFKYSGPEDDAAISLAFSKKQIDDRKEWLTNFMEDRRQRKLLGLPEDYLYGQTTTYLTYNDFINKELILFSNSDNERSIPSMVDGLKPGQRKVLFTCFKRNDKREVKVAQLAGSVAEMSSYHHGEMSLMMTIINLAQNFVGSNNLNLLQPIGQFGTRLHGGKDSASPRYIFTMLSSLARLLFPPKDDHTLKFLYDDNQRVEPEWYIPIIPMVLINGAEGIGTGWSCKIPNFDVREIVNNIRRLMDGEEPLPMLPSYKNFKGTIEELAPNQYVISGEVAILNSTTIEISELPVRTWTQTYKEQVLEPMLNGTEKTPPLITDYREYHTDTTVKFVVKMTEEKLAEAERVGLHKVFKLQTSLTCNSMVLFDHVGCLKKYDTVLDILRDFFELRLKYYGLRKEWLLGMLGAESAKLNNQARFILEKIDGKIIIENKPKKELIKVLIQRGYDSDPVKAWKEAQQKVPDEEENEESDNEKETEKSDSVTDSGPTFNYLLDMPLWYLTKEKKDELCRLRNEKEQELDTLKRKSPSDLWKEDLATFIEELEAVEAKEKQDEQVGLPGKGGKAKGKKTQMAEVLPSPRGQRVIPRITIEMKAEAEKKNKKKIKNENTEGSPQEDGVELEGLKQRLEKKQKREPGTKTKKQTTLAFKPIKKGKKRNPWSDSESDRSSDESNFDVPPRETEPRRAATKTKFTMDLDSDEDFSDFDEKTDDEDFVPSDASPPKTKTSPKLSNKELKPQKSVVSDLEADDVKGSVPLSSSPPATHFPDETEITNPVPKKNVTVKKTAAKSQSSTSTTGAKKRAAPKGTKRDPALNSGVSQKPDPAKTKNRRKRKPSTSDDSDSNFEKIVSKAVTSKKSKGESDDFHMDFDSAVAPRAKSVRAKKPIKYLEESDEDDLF

Question: `COc1ccc2c(c1N)C(=O)O[C@@H]2[C@H]1c2c(cc3c(c2OC)OCO3)CCN1C` [Compound 9a, 7-amino-6-methoxy-3-(4-methoxy-6-methyl-5,6,7,8-tetrahydro-[1,3]dioxolo[4,5-g]isoquinolin-5-yl)-3H-isobenzofuran-1-one] was tested. Which EC50 [1] did it give?
Answer: < 100 nM

Question: And the EC50 [2]?
Answer: < 50 nM

Question: What about the EC50 [3] of the same compound?
Answer: < 100 nM

Question: What about the EC50 [4] of the same compound?
Answer: < 50 nM

Question: And the “effect on microtubule polymerization” value [5]?
Answer: dose-dependent decrease of microtubule polymerization

Question: And the “Percent of Cells in G1” value (HEK293 cells [6]; HEK293, 0.1 μM)?
Answer: 1%

Question: What about the “Percent of Cells in G2/M” value (HEK293 cells [6]; HEK293, 0.1 μM) of the same compound?
Answer: 92.1%

Question: And the “Percent of Cells in S” value (HEK293 cells [6]; HEK293, 0.1 μM)?
Answer: 6.9%

Question: What about the “concentration at which activity was observed” value (HEK293 cells [6]; HEK293, G2/M accumulation) of the same compound?
Answer: 0.1 µM

Question: And the “accumulation of cells in G2/M” value (HEK293 cells [6]; HEK293, concentrations as in Table 1)?
Answer: ~90%

Question: And the EC50 (HL-60 (leukemia))?
Answer: < 50 nM

Question: And the EC50 [7]?
Answer: < 100 nM

Question: What about the EC50 (U937 (lymphoma)) of the same compound?
Answer: < 50 nM

Question: And the EC50 (H4 (glioma))?
Answer: < 50 nM

Question: And the EC50 [8]?
Answer: < 100 nM

Question: And the EC50 (HEK293 cells [9])?
Answer: < 50 nM

Question: What about the EC50 (HEK293 cells [9]; text summary) of the same compound?
Answer: < 1000 nM

Question: What about the EC50 [10] of the same compound?
Answer: < 100 nM

Question: And the EC50 [11]?
Answer: < 100 nM

Question: And the EC50 ([12]; Mus musculus, Swiss 3T3 non-dividing fibroblast, 48 to 72 hr exposure)?
Answer: > 50000 nM

Question: What about the “effect on viability” value ([12]; non-dividing Swiss 3T3 fibroblasts, even at 50 μM) of the same compound?
Answer: no effect was observed

Question: What about the EC50 [13] of the same compound?
Answer: < 100 nM

Question: And the EC50 [14]?
Answer: < 100 nM

Question: What does the source list for `COc1ccc2c(c1OC)C(=O)O[C@@H]2[C@H]1c2c(cc3c(c2OC)OCO3)CCN1C` [Noscapine, noscapine, reference compound]?
Answer: Percent of Cells in G1 (HEK293 cells [6]; HEK293, 50 μM): 19.2%; Percent of Cells in G2/M (HEK293 cells [6]; HEK293, 50 μM): 49.6%; Percent of Cells in S (HEK293 cells [6]; HEK293, 50 μM): 31.1%; EC50 (HEK293 cells [9]): ~10000 nM; inhibition of topoisomerase II activity (topoisomerase II): neither topotecan nor noscapine acts as inhibitors; inhibition of topoisomerase I activity (topoisomerase I): neither etoposide nor noscapine inhibited
